This is an account of results in PMC6452685, “Lysyl-tRNA synthetase as a drug target in malaria and cryptosporidiosis” (Proceedings of the National Academy of Sciences of the …, 2019).

The target in this assay is PfKRS1 (Plasmodium falciparum, UniProt Q8IDJ8). Kind of assay: PfKRS1 hit discovery high-throughput screen (Kinase-Glo). As to conditions: single point 7.5 µM. Also on record: recombinant PfKRS1 (77–583 and 80–583); 6xHis (N); made in house; host or cells: E. coli Rosetta BL21(DE3), vector pAVA0421. The class given is biochemical. The method, then:
By using the luciferase ATP consumption (Kinase-Glo) assay platform with sub-Km substrate concentrations (thus biasing the assay toward identifying ATP-competitive inhibitors), the GlaxoSmithKline malaria actives set of ∼13,000 compounds (the Tres Cantos Antimalarial Set) ([19]) was screened against recombinant PfKRS1, leading to the discovery of a PfKRS1 inhibitor, compound 2 (Fig. 1). […] Compound 2 suffered from high metabolic instability (CLi > 50 mL⋅min^−1⋅g^−1 in mouse liver microsomes); however, in contrast to cladosporin 1, it was chemically tractable. […]
Assays were performed in 384-well format i n buffer (as des cri bed i n Tabl e S3), 60 µM lysine, and 75 nM PfKRS1. Compounds were initially screened at single point concentrations of 7.5 µM and hits were re peated three times. Plates were incubated for 180 mi ns at 37°C after a ddition of compounds. Reactions were terminated by the addi ti on of Ki nase-Glo® reagent and read on an E nVi si on pl ate reader (Perki nEl mer, W al tham, MA). […]
Us i ng the EnzChek as s ay pl atform the I C50 value for compound 5 was determined at saturating concentrati ons of both s ubs trates , 0. […] Assay ready plates containing different concent rations of compound 5 were prepa red usi ng an Ec ho® 5 50 acousti c di spenser (Labcyte Inc.). […]

Chain of PfKRS1 (Q8IDJ8 77-583): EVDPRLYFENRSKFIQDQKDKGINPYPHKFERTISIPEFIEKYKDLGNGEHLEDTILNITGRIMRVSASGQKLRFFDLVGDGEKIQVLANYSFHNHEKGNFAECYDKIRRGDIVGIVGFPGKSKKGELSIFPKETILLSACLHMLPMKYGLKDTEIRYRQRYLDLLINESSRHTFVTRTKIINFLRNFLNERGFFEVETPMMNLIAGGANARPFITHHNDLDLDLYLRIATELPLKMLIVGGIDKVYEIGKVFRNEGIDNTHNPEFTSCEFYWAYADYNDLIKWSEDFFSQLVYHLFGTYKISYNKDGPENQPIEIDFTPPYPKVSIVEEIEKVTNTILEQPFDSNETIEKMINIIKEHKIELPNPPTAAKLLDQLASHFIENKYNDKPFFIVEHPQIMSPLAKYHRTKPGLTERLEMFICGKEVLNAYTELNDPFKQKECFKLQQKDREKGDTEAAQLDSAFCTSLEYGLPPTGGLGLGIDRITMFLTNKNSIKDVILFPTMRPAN

Consider `O=C(NCC1CCCCC1)c1cc(=O)c2ccccc2o1` [Compound 2], for which the “inhibition of PfKRS1 in high-throughput screen” value was 71-91%.
